{"source": "paper PMC11373624", "about": "“Development and preclinical characterization of a novel radiotheranostic EphA2-targeting bicyclic peptide” (Theranostics, 2024)", "key": {"[1]": {"settings": "male, CD-1 (ICR), mouse, in vivo, iv, 1 mg/kg", "experimental": "(§4) In vivo pharmacokinetic studies were conducted in male CD-1 (ICR) mice, 7-9 weeks of age. […] Serial venous blood samples were taken at 5 min, 15 min, 30 min, 45 min, 1 h, 2 h and 4 h post injection. Samples were immediately transferred into low-binding microcentrifuge tubes containing 2 μL K2-EDTA (0.5 M) as anti-coagulant and kept on ice until processed by centrifugation at 4°C, 3200 g for 10 min. The resulting plasma was transferred into low-binding tubes and the protein precipitated by addition of methanol containing 0.5% Triton X-100 and internal standards (100 ng/mL each of labetalol, tolbutamide, verapamil, dexamethasone, glyburide and celecoxib). Samples were centrifuged at 4°C, 12000 g for 15 min and the supernatant removed, frozen over dry ice and stored at -70°C until LC-MS/MS analysis (Supplementary Materials - Methods). A calibration curve and quality control samples were prepared in the same matrix. Pharmacokinetic parameters were derived from noncompartmental analysis using the intravenous-noncompartmental model 201 (IV bolus input) in Phoenix WinNonlin version 8.3.5 (Certara, USA)."}, "[2]": {"assay": "in vitro", "format": "in vitro ADME", "settings": "plasma", "method": "To determine binding to plasma proteins, BCY18469 was labeled with ^68Ga (apparent molar activity 1 GBq/µmol). Thereafter, 10 µL of the labeling mixture were added to 100 µL of mouse or human plasma (mouse: BioIVT, United Kingdom, human: Sigma Aldrich, Germany). The mixture was left for 15 min at room temperature. Afterwards, the plasma was loaded into an ultrafiltration device (Amicon Ultra 0.5ml - 30 kDa, Merck, Germany) and centrifuged at 14,000 rpm for 30 min at r.t. The filtrate and the membrane were measured in a gamma counter (Wizard2, Perkin Elmer, Germany). The amount of plasma-bound compound was calculated based on the counts in the […] relative to the total counts (filtrate + membrane)."}, "[3]": {"molecular_target": "Human EphA4 (Homo sapiens, UniProt P54764)", "sequence (P54764 20-986)": "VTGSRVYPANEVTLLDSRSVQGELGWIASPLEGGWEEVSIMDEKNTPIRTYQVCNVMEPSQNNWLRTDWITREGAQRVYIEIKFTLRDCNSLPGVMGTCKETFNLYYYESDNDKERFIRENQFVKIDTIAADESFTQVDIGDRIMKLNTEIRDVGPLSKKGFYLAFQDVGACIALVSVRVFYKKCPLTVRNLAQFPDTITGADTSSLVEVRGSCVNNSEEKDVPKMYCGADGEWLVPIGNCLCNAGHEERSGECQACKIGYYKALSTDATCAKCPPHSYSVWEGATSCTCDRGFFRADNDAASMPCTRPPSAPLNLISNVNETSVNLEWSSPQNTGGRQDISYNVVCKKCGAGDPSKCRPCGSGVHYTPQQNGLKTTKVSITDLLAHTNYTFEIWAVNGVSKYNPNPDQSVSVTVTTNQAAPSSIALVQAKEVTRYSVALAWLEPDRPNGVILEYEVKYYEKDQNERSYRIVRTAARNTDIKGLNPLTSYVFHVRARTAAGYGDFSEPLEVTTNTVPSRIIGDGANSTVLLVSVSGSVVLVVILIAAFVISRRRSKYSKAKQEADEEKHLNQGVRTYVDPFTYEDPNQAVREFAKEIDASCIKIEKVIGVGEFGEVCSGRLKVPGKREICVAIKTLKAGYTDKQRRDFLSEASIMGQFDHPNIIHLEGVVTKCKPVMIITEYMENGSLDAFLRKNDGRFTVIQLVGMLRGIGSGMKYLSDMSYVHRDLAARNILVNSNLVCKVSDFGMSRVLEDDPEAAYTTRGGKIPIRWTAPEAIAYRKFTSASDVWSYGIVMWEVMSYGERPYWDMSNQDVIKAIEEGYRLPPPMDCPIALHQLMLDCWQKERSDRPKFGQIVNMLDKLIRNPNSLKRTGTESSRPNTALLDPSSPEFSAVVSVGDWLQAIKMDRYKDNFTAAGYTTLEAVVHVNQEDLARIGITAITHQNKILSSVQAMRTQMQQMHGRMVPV", "assay": "SPR homologue panel, EphA4", "settings": "human EphA4, n=1; read-out: KD, no binding up to"}, "[4]": {"molecular_target": "T1, Human EphA7 (Homo sapiens, UniProt Q15375)", "T1 construct": "purchased R&D Systems 6756-A7", "T1 sequence (Q15375 28-998)": "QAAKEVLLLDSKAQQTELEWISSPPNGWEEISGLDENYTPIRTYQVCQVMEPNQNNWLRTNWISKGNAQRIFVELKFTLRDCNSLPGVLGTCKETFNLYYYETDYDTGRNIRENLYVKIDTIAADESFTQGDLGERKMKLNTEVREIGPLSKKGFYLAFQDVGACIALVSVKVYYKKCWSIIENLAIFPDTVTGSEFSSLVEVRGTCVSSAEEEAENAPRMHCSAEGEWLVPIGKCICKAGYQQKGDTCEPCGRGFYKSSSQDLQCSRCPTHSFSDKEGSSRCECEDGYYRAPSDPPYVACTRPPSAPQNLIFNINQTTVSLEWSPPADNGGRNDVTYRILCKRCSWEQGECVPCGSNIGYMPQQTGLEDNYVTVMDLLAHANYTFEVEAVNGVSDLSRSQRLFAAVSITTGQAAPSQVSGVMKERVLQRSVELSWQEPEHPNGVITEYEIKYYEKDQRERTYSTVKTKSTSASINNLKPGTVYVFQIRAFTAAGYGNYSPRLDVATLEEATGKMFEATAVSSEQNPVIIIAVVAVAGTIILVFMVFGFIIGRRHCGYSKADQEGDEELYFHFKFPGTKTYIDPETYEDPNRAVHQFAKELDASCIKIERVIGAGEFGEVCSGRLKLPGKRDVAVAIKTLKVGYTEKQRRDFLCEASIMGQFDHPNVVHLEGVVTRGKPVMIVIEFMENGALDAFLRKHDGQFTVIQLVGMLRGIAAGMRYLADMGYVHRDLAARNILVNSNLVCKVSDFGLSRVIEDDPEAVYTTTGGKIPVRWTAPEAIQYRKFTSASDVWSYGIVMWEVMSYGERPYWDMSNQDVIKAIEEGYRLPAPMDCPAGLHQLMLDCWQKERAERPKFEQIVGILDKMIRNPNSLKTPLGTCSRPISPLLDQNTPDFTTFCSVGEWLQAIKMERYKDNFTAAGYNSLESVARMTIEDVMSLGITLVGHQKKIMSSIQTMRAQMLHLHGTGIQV", "assay": "SPR homologue panel, EphA7", "settings": "human EphA7, n=1; read-out: KD, no binding up to", "method": "(§1) The commercial source details of the recombinant proteins used in SPR were as follows: Human proteins: EphA1 (15789-H02H, Sino Biological), EphA3 (644-A3, R&D Systems), EphA6 (5606-A6, R&D Systems), EphA7 (6756-A7, R&D Systems). Mouse proteins: Mouse EphA2 was purchased from R&D Systems (Product number 639-A2). Mouse EphA2-Fc was resuspended as per manufacturer's recommendations and material was passed through a SuperdexS200 column to remove aggregates.\n(§2) SPR experiments were performed on a Biacore 8K+ (Cytiva Life Sciences, USA) instrument, with methods matched for both human and mouse EphA2 protein. Protein was captured on to a Cytiva NTA sensor chip (Cytiva Life Sciences), via the expressed His-tag; this was followed by primary amine coupling chemistry to covalently immobilize the protein to the chip at 25°C. Initially the surface was injected with 0.5 mM NiCl2 for 2 minutes, followed by activation of the carboxymethyl dextran surface for 7 minutes using an injection of a 1:1 ratio of 0.4 M 1-ethyl-3-(3-dimethylaminopropyl) carbodiimide hydrochloride (EDC)/0.1 M N-hydroxy succinimide (NHS) at a flow rate of 10 µL/min.\n(§3) Peptide was prepared in PBS/0.05% Tween 20 with a final DMSO concentration of 0.5%. The top peptide concentration was 100 or 500 nM and 5 further 3-fold dilutions. […]"}, "[5]": {"molecular_target": "T2, Human EphA2 (Homo sapiens, UniProt P29317)", "T2 construct": "Human EphA2 (residues 27-529) was cloned into pEXPR-IBA44; made in house; host or cells: HEK293 f/s cells", "T2 sequence (P29317 27-529)": "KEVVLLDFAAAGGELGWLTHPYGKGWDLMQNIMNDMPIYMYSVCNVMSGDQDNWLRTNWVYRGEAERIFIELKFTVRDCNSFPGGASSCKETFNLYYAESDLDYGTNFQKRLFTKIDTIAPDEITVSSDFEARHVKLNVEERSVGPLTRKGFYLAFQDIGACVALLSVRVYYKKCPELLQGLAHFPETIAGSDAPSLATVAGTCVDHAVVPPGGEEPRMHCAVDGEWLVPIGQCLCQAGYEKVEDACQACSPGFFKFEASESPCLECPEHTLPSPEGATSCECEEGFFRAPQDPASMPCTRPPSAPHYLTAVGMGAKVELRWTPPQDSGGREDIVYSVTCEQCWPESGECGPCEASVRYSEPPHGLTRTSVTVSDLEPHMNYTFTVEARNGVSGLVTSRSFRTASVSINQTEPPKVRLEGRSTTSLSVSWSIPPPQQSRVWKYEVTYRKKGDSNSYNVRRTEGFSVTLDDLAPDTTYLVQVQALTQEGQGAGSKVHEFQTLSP", "assay": "SPR binding to human EphA2", "method": "Human EphA2 (residues 27-529) was cloned into pEXPR-IBA44 between the 5' NheI and 3' BsaI sites to make constructs expressing a BM40 signal sequence and C-terminal 6xHIS tag. For the expression and purification of the protein, HEK293 f/s cells at 1 x 10^6/mL in freestyle media (Thermo Fisher) were transfected with 1 µg DNA per million cells by PEI either 2:1 or 3:1 PEI:DNA ratio. On day 2 valproic acid was added to a 2.2 mM concentration. The supernatant was harvested 5 days post transfection and loaded on a 1 ml Ni-NTA agarose resin (Thermo Fisher) (wash buffer: 20 mM HEPES pH 7.6, 0.5 M NaCl, 5 mM imidazole, 0.01% Tween-20 buffer; elution buffer: 20 mM HEPES pH 7.6, 0.5 M NaCl, 300 mM imidazole, 0.01% Tween-20). The protein was concentrated to a volume of 2 mL, loaded onto an S-200 Superdex column (GE Healthcare) and eluted with 20 mM HEPES pH 7.6, 150 mM NaCl, 0.01% Tween-20 at a flow rate of 1 mL/min. Fractions were collected and those containing human EphA2 protein were concentrated for further use.\nas §2\nHuman EphA2 protein was captured to the Ni-NTA surface to a level of 200-300 RU and Mouse EphA2 to 500-800 RU; the residual activated groups were then blocked with a 7 minute injection of 1 M ethanolamine (pH 8.5):HBS-N (1:1). Finally, the Ni-NTA surface was chelated with a 1-minute injection of 350 mM EDTA.\nPeptide was prepared in PBS/0.05% Tween 20 with a final DMSO concentration of 0.5%. The top peptide concentration was 100 or 500 nM and 5 further 3-fold dilutions. The peptide was titrated over the chip using single cycle kinetics at 25°C at a flow rate of 75 µL/min with 60 second association and 4000 second dissociation. All data were double referenced for blank injections and reference surface using standard processing procedures. Data was characterized with a 1:1 kinetic binding model to determine kinetic rate constants ka (M^-1s^-1) and kd (s^-1) and equilibrium dissociation constant KD (nM). All data processing was performed using Cytiva Insight Evaluation (Cytiva Life Sciences, USA)."}, "[6]": {"molecular_target": "T3, Human EphA1 (Homo sapiens, UniProt P21709)", "T3 construct": "purchased Sino Biological 15789-H02H", "T3 sequence (P21709 26-547 limits assumed)": "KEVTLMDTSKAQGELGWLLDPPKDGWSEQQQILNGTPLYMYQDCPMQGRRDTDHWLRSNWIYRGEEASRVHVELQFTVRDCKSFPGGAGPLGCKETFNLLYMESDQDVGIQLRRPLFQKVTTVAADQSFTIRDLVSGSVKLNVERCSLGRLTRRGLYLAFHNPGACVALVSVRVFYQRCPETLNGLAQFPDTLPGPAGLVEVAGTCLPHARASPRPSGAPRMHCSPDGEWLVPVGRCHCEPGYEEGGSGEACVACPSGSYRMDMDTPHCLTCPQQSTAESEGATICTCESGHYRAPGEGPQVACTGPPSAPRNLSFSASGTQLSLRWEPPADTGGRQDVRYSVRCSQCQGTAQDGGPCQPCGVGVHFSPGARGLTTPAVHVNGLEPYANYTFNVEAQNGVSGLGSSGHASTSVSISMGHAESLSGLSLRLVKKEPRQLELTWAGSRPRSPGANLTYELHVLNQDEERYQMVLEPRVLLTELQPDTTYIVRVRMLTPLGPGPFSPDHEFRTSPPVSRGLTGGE", "assay": "SPR homologue panel, EphA1", "settings": "human EphA1, n=1; read-out: KD, no binding up to", "method": "as §1, §2, §3"}, "[7]": {"assay": "in vivo", "settings": "male, CD-1 (ICR), mouse, iv, 1 mg/kg", "experimental": "as §4"}}, "note": "Numbered stars: 1 amine (or outer) side, 2 acyl side, 3 side chain; on linkers, the order of the positions; unused ones are H or OH. Bridge positions count the residues as written; N and C are the ends. Square brackets hold non-standard residues; d marks the D form. Peptide text beside a SMILES is read from it. * marks the point of attachment. DOTA = O=C(O)CN1CCN(CC(=O)O)CCN(CC(=O)*)CCN(CC(=O)O)CC1; TATA = O=C(CC[*:1])N1CN(C(=O)CC[*:2])CN(C(=O)CC[*:3])C1; Hyp = O=C(O)[C@@H]1C[C@@H](O)CN1; hArg = N=C(N)NCCCC[C@H](N)C(=O)O; Cba = N[C@@H](CC1CCC1)C(=O)O; βAla = NCCC(=O)O; Sar = CNCC(=O)O", "data": [{"molecule": "CC(C)C[C@@H]1NC(=O)[C@@H]2CSCCC(=O)N3CN(CN(C3)C(=O)CCSC[C@H](NC(=O)[C@H](CC(=O)O)NC(=O)[C@H](CCCCNC(=N)N)NC(=O)[C@H](C)NC(=O)CN(C)C(=O)CN(C)C(=O)CN(C)C(=O)CN(C)C(=O)CN(C)C(=O)CN(C)C(=O)CN(C)C(=O)CN(C)C(=O)CN(C)C(=O)CN(C)C(=O)CCNC(=O)CN3CCN(CC(=O)O)CCN(CC(=O)O)CCN(CC(=O)O)CC3)C(=O)N3C[C@H](O)C[C@H]3C(=O)N[C@@H](CC3CCC3)C(=O)N[C@@H](C(C)C)C(=O)N[C@@H](CC(N)=O)C(=O)N3CCC[C@H]3C(=O)N[C@@H](CC(C)C)C(=O)N2)C(=O)CCSC[C@@H](C(N)=O)NC(=O)[C@H](CCCCNC(=N)N)NC(=O)[C@H](Cc2c[nH]c3ccccc23)NC(=O)[C@@H](CC(=O)O)NC(=O)[C@@H]2CCCN2C(=O)[C@H](Cc2c[nH]cn2)NC1=O", "note": "[BCY18469, [-DOTA]-[B-Ala]-[Sar10]-Ala-[HArg]-Asp-Cys-[HyP]-[Cba]-Val-Asn-Pro-Leu-Cys-Leu-His-Pro-[dAsp]-Trp-[HArg]-Cys-CONH2] ({DOTA-βAla}-[Sar][Sar][Sar][Sar][Sar][Sar][Sar][Sar][Sar][Sar]A[hArg]DC[Hyp][Cba]VNPLCLHP[dD]W[hArg]C-NH2; linker 14-21-28 via TATA)", "values": [{"measurement": "CLp", "setting": "[1]", "result": 1.44, "unit": "L/h/kg"}, {"measurement": "fraction unbound at 15 min", "setting": "[2]; human, Plasma protein binding (% bound peptide)", "result": 0.567}, {"measurement": "fraction unbound at 15 min", "setting": "[2]; mouse", "result": 0.489}, {"measurement": "Kd", "setting": "[3]", "result": "> 5", "unit": "µM"}, {"measurement": "Kd", "setting": "[4]", "result": "> 5", "unit": "µM"}, {"measurement": "Kd", "setting": "[5]; human EphA2, 25°C, read-out: KD (SPR)", "result": "0.00193 ± 0.00035", "unit": "µM"}, {"measurement": "kon", "setting": "[5]; human EphA2, n=2, read-out: ka", "result": "1.82e+06", "unit": "M⁻¹ s⁻¹"}, {"measurement": "Kd", "setting": "[6]", "result": "> 5", "unit": "µM"}, {"measurement": "AUC(0-inf)", "setting": "[7]", "result": 0.701, "unit": "µg·h/mL"}, {"measurement": "AUC(0-t)", "setting": "[7]", "result": 0.7, "unit": "µg·h/mL"}, {"measurement": "Cmax", "setting": "[7]", "result": 3.32, "unit": "µg/mL"}, {"measurement": "Vd", "setting": "[7]", "result": 0.39, "unit": "L/kg"}, {"measurement": "half-life", "setting": "[7]", "result": 14.4, "unit": "min"}, {"measurement": "clearance", "setting": "[7]; CLp", "result": 1.43, "unit": "L/h/kg"}]}]}
